Experimental data taken from patent publication US20210137897A1, “TOPICAL mTOR INHIBITORS FOR CUTANEOUS PROLIFERATIVE AND VASCULAR CONDITIONS” (GEORGETOWN UNIVERSITY, priority 2019, published 2021).

Assays:
[1] = tested on: Langerhans cell histiocytosis, multisystem disease; conditions: in combination with a single dose of methylprednisolone; cited from earlier work
[2] = cited from earlier work
[3] = tested on: confluent and reticulated papillomatosis (CARP); test: Case report: topical 1% rapamycin cream in confluent and reticulated papillomatosis; assay type: in vivo, human; conditions: 1% rapamycin cream twice a day for 3 months
Text: FIG. 1A is a photographic image of the chest of a patient afflicted with confluent and reticulated papillomatosis (CARP) before starting 3 months' treatment with topically applied 1% rapamycin (sirolimus).
FIG. 1B is a photographic image of the chest of the patient in FIG. 1A following 3 months' treatment with topically applied 1% rapamycin (sirolimus).
A person was initially diagnosed with CARP in October 2015 when they presented with numerous hyperpigmented, slightly velvety macules with a fine overlying scale coalescing into reticulated and confluent patches on their chest, neck, and upper back. […] They then embarked upon a course of topical 1% rapamycin cream applied to affected areas twice a day for 3 months. […] Pre- and post treatment photographs are presented as FIGS. 1A and 1B, respectively.

[4] = Sirolimus blood levels during topical treatment of the non-LCH patient; assay type: in vivo, human; conditions: at 1 month; topical rapamycin (1%) ointment to left face
Text: Topical rapamycin (1%) compounded in ointment was initiated to the left face with the right face serving as a control. Sirolimus blood levels were negative at 1 month.

keloids = test: Case report: 1% topical rapamycin on keloidal, contracted burn scar; assay type: in vivo, human; conditions: 1% topical rapamycin one to two times a day on thigh scar
Text: As an adjuvant treatment, they treated their worst keloidal, contracted scar on their thigh with 1% topical rapamycin one to two times a day.

[5] = tested on: capillary malformation-arteriovenous malformation (CM-AVM) syndrome; test: Case report: topical 1% rapamycin cream in CM-AVM syndrome; assay type: in vivo, human; conditions: topical 1% rapamycin cream twice a day to the face
Text: A person presented with several well demarcated pink to slightly tan patches with perilesional halos/rims of pallor scattered on their body, including one on their face. Many of those birthmarks were present since birth or at least since a very young age. The patient's parent also had similar-appearing birthmarks. The patient was otherwise well. Genetic testing confirmed a pathogenic variant identified in RASA1 gene consistent with capillary malformation-arteriovenous malformation (CM-AVM) syndrome. Per the patient and their parent's interest in a topical treatment, off-label use of topical 1% rapamycin cream was used twice a day to the lesion on the face.

[6] = tested on: venolymphatic malformation; test: Case report: topical 1% sirolimus cream in venolymphatic malformation; assay type: in vivo, human
Text: A person presented with a birthmark on the left thigh, present since birth. […] Clinically, it appeared most consistent with a mixed venolymphatic malformation, possibly with a small capillary component to it. Over the last few years, it began scabbing and occasionally bleeding at the surface. The deeper areas sometimes caused a throbbing pain. A decision was made to start treatment with topical 1% sirolimus cream twice a day. After 1.5 to 2 months treatment, the birthmark started to improve. Before starting topical sirolimus, they had painful episodes (6/10 severity) 2-3× per week that lasted 15-20 minutes. […] Additionally, overall the lesion was much flatter since starting the topical sirolimus. Their quality of life improved now that they were is in much less pain.
Previous reports have shown effectiveness of oral sirolimus in the treatment of venolymphatic malformations; however, to the best of inventor's knowledge, topical treatment has never been reported. This patient's venolymphatic malformation improved both symptomatically and improved in appearance with topical 1% rapamycin treatment. […] Additionally, inventor expects that all superficial or cutaneous vascular malformations and cutaenous vascular conditions would respond to treatment with topical mTOR inhibitor.

Sirolimus blood levels [4]	SMILES	disease response [1] [%]	reactivation [1] [%]	survival [1] [%]	toxicity [1] [%]	water solubility [2]	local tolerability at the site of application [3]	tolerability (keloids)	tolerability [5]	duration of pain episode ([6]; after 1-2 months of topical 1% sirolimus, before treatment 15-20 minutes)	treatment time until the birthmark started to improve ([6]; person, topical 1% sirolimus cream twice a day) [months]
	CC[C@]1(O)C[C@@H]2CN(CCc3c([nH]c4ccccc34)[C@@](C(=O)OC)(c3cc4c(cc3OC)N(C)[C@H]3[C@@](O)(C(=O)OC)[C@H](OC(C)=O)[C@]5(CC)C=CCN6CC[C@]43[C@@H]65)C2)C1 [vinblastine]	58	61	76	47						
negative	CO[C@H]1C[C@@H]2CC[C@@H](C)[C@@](O)(O2)C(=O)C(=O)N2CCCC[C@H]2C(=O)O[C@H]([C@H](C)C[C@@H]2CC[C@@H](O)[C@H](OC)C2)CC(=O)[C@H](C)/C=C(\C)[C@@H](O)[C@@H](OC)C(=O)[C@H](C)C[C@H](C)/C=C/C=C/C=C/1C [sirolimus, Sirolimus]					poorly water soluble	denied having any itching, burning, or pain	tolerated the treatment well without any known side effects	tolerated well without side effects	about 10 minutes	1.5 to 2
	COc1cc([C@@H]2c3cc4c(cc3[C@@H](O[C@@H]3O[C@@H]5CO[C@@H](C)O[C@H]5[C@H](O)[C@H]3O)[C@H]3COC(=O)[C@H]23)OCO4)cc(OC)c1O [etoposide]	65	55	83	58						
